Drawing on PubChem BioAssay AID276 (DTP/NCI, 2004), this text covers T/C for 11 molecules.

The assay has as its system B6C3F1 mice, Lewis lung carcinoma iv, survival T/C. Description: NCI In Vivo Anticancer Drug Screen. Data for tumor model Lewis Lung Carcinoma (intravenous) in B6C3F1 mice. The conditions noted are these: endpoint: median survival time, higher = longer survival. The gist of the method:
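Antitumor activity is assessed in tumor-bearing mice by comparing survival after compound treatment against vehicle-treated controls, reported as a T/C ratio.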

[1] abbreviates: dose: 6.25 mg/kg/injection, schedule: Q01DX009 (ip), vehicle: saline.
The mark [2] stands for this setting: dose: 12.5 mg/kg/injection, schedule: Q01DX009 (ip), vehicle: saline.
Where [3] appears, read: dose: 12.5 mg/kg/injection, schedule: Q01DX009 (ip), vehicle: saline with Tween-80.
Setting [4] is: dose: 25.0 mg/kg/injection, schedule: Q01DX009 (ip), vehicle: saline with Tween-80.
Where [5] appears, read: dose: 50.0 mg/kg/injection, schedule: Q01DX009 (ip), vehicle: saline with Tween-80.
The mark [6] stands for this setting: dose: 100.0 mg/kg/injection, schedule: Q01DX009 (ip), vehicle: saline with Tween-80.
Where [7] appears, read: dose: 12.5 mg/kg/injection, schedule: Q01DX009 (ip), vehicle: suspension in saline.
Setting [8] is: dose: 25.0 mg/kg/injection, schedule: Q01DX009 (ip), vehicle: suspension in saline.

Values joined by “and” are separate entries in the source; they are usually repeats but may differ in a detail not shown here. Identical values can stand only once. Toxic doses and inconclusive results are not listed.

For `NC(=O)c1csc(C2OC(CO)C(O)C2O)n1` (stereo not given), the T/C by setting is: (dose: 0.78 mg/kg/injection, schedule: Q01DX009 (ip), vehicle: saline) 94 % of control; (dose: 1.56 mg/kg/injection, schedule: Q01DX009 (ip), vehicle: saline) 109 % of control; (dose: 3.12 mg/kg/injection, schedule: Q01DX009 (ip), vehicle: saline) 108 % of control; under setting [1], 119 % of control; (dose: 12.0 mg/kg/injection, schedule: Q01DX009 (ip), vehicle: saline) 155 % of control and 158 % of control; under setting [2], 284 % of control. In addition, the T/C (dose: 25.0 mg/kg/injection, schedule: Q01DX009 (ip), vehicle: water) is 240 % of control and 348 % of control and 355 % of control; the T/C (dose: 50.0 mg/kg/injection, schedule: Q01DX009 (ip), vehicle: water) was 240 % of control and 348 % of control and 355 % of control; the T/C (dose: 62.5 mg/kg/injection, schedule: Q01DX009 (ip), vehicle: water) is 295 % of control; the T/C (dose: 100.0 mg/kg/injection, schedule: Q01DX009 (ip), vehicle: water) was 240 % of control and 348 % of control and 355 % of control; the T/C (dose: 125.0 mg/kg/injection, schedule: Q01DX009 (ip), vehicle: water) is 295 % of control; the T/C (dose: 200.0 mg/kg/injection, schedule: Q01DX009 (ip), vehicle: water) was 240 % of control and 348 % of control and 355 % of control. Also, the T/C is, setting by setting: (dose: 250.0 mg/kg/injection, schedule: Q01DX009 (ip), vehicle: water) 295 % of control; (dose: 400.0 mg/kg/injection, schedule: Q01DX009 (ip), vehicle: water) 240 % of control and 348 % of control and 355 % of control; (dose: 500.0 mg/kg/injection, schedule: Q01DX009 (ip), vehicle: water) 295 % of control; (dose: 800.0 mg/kg/injection, schedule: Q01DX009 (ip), vehicle: water) 240 % of control; (dose: 1000.0 mg/kg/injection, schedule: Q01DX009 (ip), vehicle: water) 295 % of control.

Consider `CCOC(=O)C1(c2ccccc2)C(=O)Oc2ccccc21` (stereo not given), for which the T/C reads like this: under setting [3], 97 % of control; under setting [4], 97 % of control; under setting [5], 96 % of control; under setting [6], 97 % of control; (dose: 200.0 mg/kg/injection, schedule: Q01DX009 (ip), vehicle: saline with Tween-80) 99 % of control; (dose: 400.0 mg/kg/injection, schedule: Q01DX009 (ip), vehicle: saline with Tween-80) 99 % of control.

For `C[CH2][Ge]([CH2]C)[CH2]C.C[CH2][Ge]([CH2]C)[CH2]C.C[CH2][Ge]([CH2]C)[O][Ge]([CH2]C)[CH2]C`, the T/C is, setting by setting: (dose: 6.25 mg/kg/injection, schedule: Q01DX009 (ip), vehicle: saline with Tween-80) 105 % of control; under setting [3], 106 % of control; under setting [4], 106 % of control; under setting [5], 101 % of control; under setting [6], 113 % of control.

Take `Nc1ncn(C2OC(CO)C(O)C2O)c(=O)n1` (stereo not given): the T/C was 111 % of control under setting [1]; 120 % of control under setting [2]; 115 % of control (dose: 25.0 mg/kg/injection, schedule: Q01DX009 (ip), vehicle: saline); 123 % of control (dose: 50.0 mg/kg/injection, schedule: Q01DX009 (ip), vehicle: saline); 170 % of control (dose: 200.0 mg/kg/injection, schedule: Q01DX009 (ip), vehicle: saline); 161 % of control (dose: 400.0 mg/kg/injection, schedule: Q01DX009 (ip), vehicle: saline).

Regarding `CCOC(=O)N1Cc2cc3cc(Cl)ccc3nc2C1`, the T/C runs as follows: (dose: 7.5 mg/kg/injection, schedule: Q01DX009 (ip), vehicle: saline with Tween-80) 100 % of control; (dose: 15.0 mg/kg/injection, schedule: Q01DX009 (ip), vehicle: saline with Tween-80) 98 % of control; (dose: 30.0 mg/kg/injection, schedule: Q01DX009 (ip), vehicle: saline with Tween-80) 100 % of control; (dose: 60.0 mg/kg/injection, schedule: Q01DX009 (ip), vehicle: saline with Tween-80) 100 % of control; (dose: 120.0 mg/kg/injection, schedule: Q01DX009 (ip), vehicle: saline with Tween-80) 105 % of control.

`CC1=CC(C)(C)Nc2ccc(CSc3ccccc3)cc21`: the T/C runs as follows: (dose: 12.5 mg/kg/injection, schedule: Q01DX009 (ip), vehicle: saline + Tween-80 + alcohol) 99 % of control; (dose: 25.0 mg/kg/injection, schedule: Q01DX009 (ip), vehicle: saline + Tween-80 + alcohol) 108 % of control; (dose: 50.0 mg/kg/injection, schedule: Q01DX009 (ip), vehicle: saline + Tween-80 + alcohol) 100 % of control; (dose: 100.0 mg/kg/injection, schedule: Q01DX009 (ip), vehicle: saline + Tween-80 + alcohol) 101 % of control; (dose: 200.0 mg/kg/injection, schedule: Q01DX009 (ip), vehicle: saline + Tween-80 + alcohol) 108 % of control; (dose: 400.0 mg/kg/injection, schedule: Q01DX009 (ip), vehicle: saline + Tween-80 + alcohol) 108 % of control.

For the molecule `C/C=C1\C[C@@H]2C(OC)Nc3cc(O)c(OC)cc3C(=O)N2C1` (stereo not given in full), the T/C is, setting by setting: (dose: 0.03 mg/kg/injection, schedule: Q01DX009 (ip), vehicle: saline) 100 % of control; (dose: 0.03 mg/kg/injection, schedule: Q01DX009 (ip), vehicle: suspension in saline) 92 % of control; (dose: 0.06 mg/kg/injection, schedule: Q01DX009 (ip), vehicle: saline) 110 % of control; (dose: 0.06 mg/kg/injection, schedule: Q01DX009 (ip), vehicle: suspension in saline) 96 % of control; (dose: 0.12 mg/kg/injection, schedule: Q01DX009 (ip), vehicle: saline) 101 % of control; (dose: 0.12 mg/kg/injection, schedule: Q01DX009 (ip), vehicle: suspension in saline) 97 % of control. The T/C was 108 % of control (dose: 0.25 mg/kg/injection, schedule: Q01DX009 (ip), vehicle: saline); 104 % of control (dose: 0.25 mg/kg/injection, schedule: Q01DX009 (ip), vehicle: suspension in saline); 104 % of control (dose: 0.5 mg/kg/injection, schedule: Q01DX009 (ip), vehicle: saline); 105 % of control (dose: 0.5 mg/kg/injection, schedule: Q01DX009 (ip), vehicle: suspension in saline).

`Cc1ccc2nc(-c3ccc4nc(-c5ccc(N=Nc6ccc(-c7nc8ccc(-c9nc%10ccc(C)c(S(=O)(=O)O)c%10s9)cc8s7)cc6)cc5)sc4c3)sc2c1S(=O)(=O)O`: the T/C was 95 % of control under setting [7]; 98 % of control under setting [8]; 107 % of control (dose: 50.0 mg/kg/injection, schedule: Q01DX009 (ip), vehicle: suspension in saline); 107 % of control (dose: 100.0 mg/kg/injection, schedule: Q01DX009 (ip), vehicle: suspension in saline).

Take `c1cc(-c2cc3ccc(C4=NCCN4)cc3[nH]2)ccc1C1=NCCN1`: the T/C (dose: 3.12 mg/kg/injection, schedule: Q01DX009 (ip), vehicle: suspension in saline) was 100 % of control; the T/C (dose: 6.25 mg/kg/injection, schedule: Q01DX009 (ip), vehicle: suspension in saline) was 120 % of control; the T/C under setting [7] was 115 % of control; the T/C under setting [8] is 111 % of control.

For the molecule `COc1cccc2c1C(=O)c1c(O)c3c(c(O)c1C2=O)C[C@H](O)C[C@@H]3OC1CC(N)C(O)C(C)O1` (stereo not given in full), the T/C was 100 % of control (dose: 0.75 mg/kg/injection, schedule: Q01DX009 (ip), vehicle: water); 104 % of control (dose: 1.5 mg/kg/injection, schedule: Q01DX009 (ip), vehicle: water); 100 % of control (dose: 3.0 mg/kg/injection, schedule: Q01DX009 (ip), vehicle: water); 104 % of control (dose: 6.0 mg/kg/injection, schedule: Q01DX009 (ip), vehicle: water).

As to `CC(CN1CC(=O)NC(=O)C1)N1CC(=O)NC(=O)C1` (stereo not given), the T/C reads like this: (dose: 108.0 mg/kg/injection, schedule: Q04DX003 (ip), vehicle: Klucel (hydroxypropylcellulose) (HPC)) 109 % of control; (dose: 180.0 mg/kg/injection, schedule: Q04DX003 (ip), vehicle: Klucel (hydroxypropylcellulose) (HPC)) 119 % of control; (dose: 300.0 mg/kg/injection, schedule: Q04DX003 (ip), vehicle: Klucel (hydroxypropylcellulose) (HPC)) 158 % of control.
